Earlier results on 1 compound are cited in US20210251559A1, “METHODS FOR DIAGNOSING, MONITORING AND TREATING NEUROLOGICAL DISEASES AND DISORDERS” (CuraSen Therapeutics, Inc., priority 2018, published 2021).

SMILES strings stand for the structures.

In the data set the test system is Ts65Dn mice. Particulars: increasing brain NE levels.

In the case of `N[C@H](C(=O)O)[C@H](O)c1ccc(O)c(O)c1` [L-DOPS, L-threo-3,4-dihydroxyphenylserine], the contextual learning entry is “restored contextual learning”.
